Patent publication US20220280594A1, “APPLICATION OF POLYPEPTIDE OR DERIVATIVE THEREOF” (CHENGDU HUITAI BIOMEDICINE CO., LTD., priority 2019, published 2022)
Ends that are not written are not given here. PEG = not defined here

Assays:
Assay type in all cases: cell-based
[1] = system: human pancreatic cancer cells (PANC-1); assay: scratch assay, migration of PANC-1 cells; details: PANC-1, 10 μM, 48 hours; control group 66.65 ± 3.37
In short: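 PANC-1 monolayers were scratched, then cultured for 48 h with 10 μM test compound in 2% FBS medium, in three parallel wells per group against a PBS control. Migration rate (%) was calculated as (original minus current scratch width) / original width × 100, from imaged wells.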

[2] = system: human liver adenocarcinoma cells (SK-HEP-1); assay: transwell migration assay, SK-HEP-1 cells; details: SK-HEP-1 transwell migration, 10 μM, 24 hours; control group 1 782 ± 108, control group 2 768 ± 86
In short: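 SK-HEP-1 cells in serum-free medium seeded in upper transwell chamber (2-3×10^5 cells/mL) over complete medium; after 4-5 h at 37 °C, 5% CO2, peptide added at 10 μM final in upper chamber. After 24 h, migrated cells fixed in methanol, crystal-violet stained, imaged and counted.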

[3] = system: human liver adenocarcinoma cells (SK-HEP-1); assay: transwell invasion assay, SK-HEP-1 cells; details: SK-HEP-1 transwell invasion, 10 μM, 24 hours; control group 767 ± 91
In short: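 Serum-free SK-HEP-1 cells were seeded in matrigel-coated upper chambers over complete medium. After 4-5 h, peptide was added to the upper chamber at 10 μM final. Following 24 h at 37° C., invaded cells were fixed, crystal violet-stained, imaged and counted.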

[4] = system: human lung squamous carcinoma cells (NCI-H226); assay: scratch assay, migration of NCI-H226 cells; details: NCI-H226, 10 μM, 48 hours; control group 65.31 ± 3.19
In short: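 A straight scratch was made in confluent NCI-H226 monolayers (1-2×10^5 cells/well). Cells were then kept 48 h in 2% FBS medium with 10 μM polypeptide or PBS control, triplicate wells. Migration rate (%) = (original − current scratch width)/original width ×100, from imaged scratch widths.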

[5] = system: human oral epidermoid carcinoma KB cells; assay: scratch assay, migration of KB cells; details: 10 μM, 48 hours, control group 54.03 ± 4.21
In short: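 Monolayers of KB cells were scratched, washed with PBS, then cultured 48 hours in 2% FBS medium containing test polypeptide (10 μM) or PBS control, in triplicate wells. From images, migration rate (%) = (original − current scratch width)/original width × 100.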

[6] = system: human pancreatic cancer cells (PANC-1); assay: transwell invasion assay, PANC-1 cells; details: PANC-1 transwell invasion, 10 μM, 24 hours; control group 727 ± 68
In short: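 Serum-free PANC-1 cells were seeded in matrigel-coated upper chambers with complete medium below. After 4-5 hours at 37° C., peptide was added at 10 μM final. Following 24 hours, invaded cells on the lower membrane surface were fixed, crystal violet-stained, imaged and counted against untreated controls.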

[7] = system: human lung cancer cells (95D); assay: scratch assay, migration of 95D cells; details: 10 μM, 48 hours, control group 55.3 ± 3.19
In short: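 Confluent 95D monolayers were scratched, washed with PBS and cultured 48 h in 2% FBS medium containing peptide (10 μM) or PBS control, in triplicate wells. Scratch width was measured on images; migration rate (%) = (original width − current width)/original width × 100.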

[8] = system: human thyroid cancer cells (FRO); assay: scratch assay, migration of FRO cells; details: 10 μM, 48 hours, control group 60.34 ± 8.32
In short: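 FRO monolayers were scratched, washed, and cultured 48 h in 2% FBS medium with polypeptide derivatives at 10 μM or PBS control, three wells per group. Migration rate (%) = (original − current scratch width)/original width × 100, measured from images.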

Substance | Migration rate (%) (mean ± SD, P) [1] | Number of cells (mean ± SD, P), migrated cells [2] | Number of cells (mean ± SD, P), invaded cells [3] | Migration rate (%) (mean ± SD, P) [4] | Migration rate (%) (mean ± SD, P) [5] | Number of cells (mean ± SD, P), invaded cells [6] | Migration rate (%) (mean ± SD, P) [7] | Migration rate (%) (mean ± SD, P) [8]
N32: SEQ ID NO: 1 with deletion of positions 1-3, addition of one amino acid and PEG modification at the carboxyl terminal (RFLAKENVTQDAEDNC-{PEG}; reading uncertain) | 15.49 ± 8.35,*** % | 201 ± 13,**** | 252 ± 7,**** | 19.47 ± 6.42,*** % | 11.70 ± 2.95,*** % | 251 ± 10,**** | 29.47 ± 3.42,** % | 7.83 ± 2.06,*** %
N13: SEQ ID NO: 1 with deletion of positions 15-18 and positions 1-5 (LAKENVTQD) | 18.28 ± 8.38,*** % | 25 ± 12,**** | 258 ± 32,**** | 11.29 ± 8.97,*** % | 14.53 ± 3.53,** % | 161 ± 19,**** | 21.2 ± 4.41,*** % | 11.99 ± 2.39,*** %
N45: SEQ ID NO: 1 with V11R, deletion of positions 1-5 and 15-18, PEG modification at the carboxyl terminal (LAKENRTQD-{PEG}; reading uncertain) | 45.16 ± 5.74,** % | 162 ± 15,**** | 155 ± 10,**** | 23.76 ± 5.38,*** % | 8.79 ± 2.28,*** % | 358 ± 23,*** | 33.76 ± 5.38,** % | 24.22 ± 6.27,** %
N24: SEQ ID NO: 1 with substitution A7R, deletion of positions 1-2 and of position 18 (VRFLRKENVTQDAED) | 13.99 ± 7.57,*** % | 265 ± 24,**** | 332 ± 30,*** | 15.74 ± 8.70,*** % | 24.03 ± 4.21,* % | 226 ± 18,**** | 35.78 ± 4.79,** % | 16.54 ± 3.19,** %
N49: SEQ ID NO: 1 with A7R, deletion of positions 1-2 and position 18, PEG modification at the carboxyl terminal (VRFLRKENVTQDAED-{PEG}; reading uncertain) | 17.71 ± 7.65,*** % | 137 ± 11,**** | 335 ± 32,*** | 38.90 ± 5.49,** % | 16.51 ± 3.93,** % | 141 ± 7,**** | 29.37 ± 3.62,** % | 15.77 ± 2.99,** %
N17: SEQ ID NO: 1 with addition of two amino acids to the carboxyl terminal (YRVRFLAKENVTQDAEDNCT) | 15.47 ± 5.29,*** % | 50 ± 5,**** | 165 ± 28,**** | 43.38 ± 4.83,** % | 14.35 ± 2.52,** % | 95 ± 6,**** | 18.31 ± 8.26,** % | 11.38 ± 2.27,*** %
N15: SEQ ID NO: 1 with substitution N18R and addition of one amino acid to the carboxyl terminal (YRVRFLAKENVTQDAEDRC) | 14.85 ± 5.08,*** % | 131 ± 10,**** | 418 ± 36,** | 35.05 ± 3.95,** % | 40.62 ± 3.53,* % | 104 ± 9,**** | 24.09 ± 6.40,** % | 8.84 ± 2.27,*** %
N14: SEQ ID NO: 1 with deletion of positions 1-5 and addition of one amino acid at the carboxyl terminal (LAKENVTQDAEDNC) | 26.63 ± 6.67,*** % | 61 ± 14,**** | 329 ± 54,*** | 19.97 ± 2.94,*** % | 11.22 ± 2.66,*** % | 157 ± 37,**** | 32.55 ± 5.71,** % | 14.09 ± 2.47,*** %
N5: SEQ ID NO: 1 with addition of one amino acid at the carboxyl terminal and deletion of positions 1-3 (RFLAKENVTQDAEDNC) | 21.63 ± 6.16,*** % | 167 ± 12,**** | 353 ± 52,*** | 10.65 ± 9.94,*** % | 9.62 ± 3.84,*** % | 109 ± 7,**** | 28.27 ± 5.00,** % | 4.71 ± 1.90,*** %
N42: SEQ ID NO: 1 with deletion of positions 1-5 and 15-18, PEG at the amino terminal, one amino acid added at the carboxyl terminal ({PEG}-LAKENVTQDR; reading uncertain) | 24.26 ± 7.91,** % | 106 ± 17,**** | 149 ± 29,**** | 17.46 ± 6.33,*** % | 8.92 ± 2.65,*** % | 399 ± 21,*** | 35.42 ± 4.97,** % | 25.71 ± 2.79,** %
N11: SEQ ID NO: 1 with deletion of positions 15-18 and 1-3 and PEG modification at the amino terminal ({PEG}-RFLAKENVTQD; reading uncertain) | 28.37 ± 7.57,** % | 80 ± 6,**** | 398 ± 36,*** | 21.77 ± 5.03,*** % | 8.29 ± 1.96,*** % | 66 ± 14,**** | 28.28 ± 3.68,*** % | 10.09 ± 4.33,*** %
N22: SEQ ID NO: 1 with substitution A7R, deletion of three amino acids at the amino terminal and of positions 15-18 (RFLRKENVTQD) | 11.44 ± 8.52,*** % | 42 ± 17,**** | 430 ± 51,** | 18.69 ± 5.25,*** % | 10.02 ± 2.35,*** % | 220 ± 65,**** | 38.35 ± 5.04,** % | 42.34 ± 4.98,* %
